The supplement of paper PMC7661543
± gives the standard deviation of the averaged measurements.

Columns and labels:
Assay in all cases: relative cell number vs DMSO control (72 h) (% of DMSO); higher = less growth inhibition (more cells)
Details in all cases: sgRNA knockout: sgNT
MDA-MB-231 = tested on: MDA-MB-231
Outline: (§1)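 After 6 days of induction with 100 ng/mL doxycycline, pooled Cas9-engineered breast cancer lines were plated at 5000 cells per 96-well and dosed in duplicate for 72 h at four 10-fold concentrations (10 nM–10 μM or 1 nM–1 μM). Cell numbers came from sequenced sgRNA and cell-line barcode reads, interpolated against 293T spike-in standard curves made for each sample. Relative cell number is reported against the median of DMSO-treated samples as a percent.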

ZR-75-1 = tested on: ZR-75-1
Outline: as §1

SKBR3 = tested on: SKBR3
Outline: as §1

BT-20 = tested on: BT-20
Outline: as §1

HCC-38 = tested on: HCC-38
Outline: as §1

SMILES | relative cell number (MDA-MB-231; 10 nM) | relative cell number (MDA-MB-231; 100 nM) | relative cell number (MDA-MB-231; 1000 nM) | relative cell number (MDA-MB-231; 10000 nM) | relative cell number (ZR-75-1; 10 nM) | relative cell number (ZR-75-1; 100 nM) | relative cell number (ZR-75-1; 1000 nM) | relative cell number (ZR-75-1; 10000 nM) | relative cell number (SKBR3; 10 nM) | relative cell number (SKBR3; 100 nM) | relative cell number (SKBR3; 1000 nM) | relative cell number (SKBR3; 10000 nM) | relative cell number (BT-20; 10 nM) | relative cell number (BT-20; 100 nM) | relative cell number (BT-20; 1000 nM) | relative cell number (BT-20; 10000 nM) | relative cell number (HCC-38; 10 nM) | relative cell number (HCC-38; 100 nM) | relative cell number (HCC-38; 1000 nM) | relative cell number (HCC-38; 10000 nM)
FC(F)c1nc2ccccc2n1-c1nc(N2CCOCC2)nc(N2CCOCC2)n1 [ZSTK474] | 92.9 ± 15 | 89.6 ± 34 | 81.7 ± 4.7 | 76.3 ± 15 | 85.1 ± 10 | 96.2 ± 4.4 | 53.6 ± 27 | 50 ± 12 | 93.1 ± 1.6 | 85 ± 15 | 60.2 ± 41 | 39.1 ± 6.5 | 79.2 ± 5 | 99.2 ± 19 | 70.9 ± 21 | 55.4 ± 3 | 90.3 ± 4.3 | 94.3 ± 9.2 | 83.4 ± 7.9 | 56.2 ± 1.8
O=c1ncccn1[C@@H]1O[C@H](CO)[C@@H](O)[C@H]1O [Zebularine] | 108 ± 38 | 121 ± 22 | 93.6 ± 0.27 | 72.7 ± 13 | 84.7 ± 48 | 66 ± 3.3 | 108 ± 26 | 117 ± 5.5 | 98.7 ± 28 | 83.6 ± 30 | 83.8 ± 14 | 106 ± 9.4 | 96.6 ± 7.1 | 83.6 ± 14 | 88.3 ± 38 | 119 ± 24 | 112 ± 28 | 107 ± 6.2 | 107 ± 1.8 | 115 ± 7.4
